# Laboratory results from patent US20230263812A1, “Compositions and Methods for Treating COVID-19 and/or Acute Respiratory Failure and/or Acute Respiratory Distress Syndrome Using Tetrahydrocannabinol and Compositions Including Same” (priority 2020, published 2023).
# Where a name gives a salt, the structure may show the parent alone. Read-outs that look alike come from different tables or passages of the source.
# Assays:
# [1] = cited from earlier work; for share of the urinary excretion products of fluvoxamine: 5 mg radiolabelled dose of fluvoxamine maleate, fluvoxamine acid value is together with its N-acetylated analog; for bound to plasma protein: mostly albumin, concentration range 20 to 2000 ng/mL
# serotonin uptake = details: in vitro, rats; cited from earlier work
# [2] = cited from earlier work
# serotonin reuptake = details: in vitro as well as in vivo; cited from earlier work
# σ-1 non-opioid receptor = σ-1 non-opioid receptor (Homo sapiens, UniProt Q99720); details: cited from earlier work
# COVID-19 = test: Clinical study of oral dronabinol plus standard of care in COVID-19 patients hospitalized for hypoxia; assay type: in vivo, human; details: for LOS: LOS = length of stay (days)
# [3] = cited from earlier work; remark: listed apart in the source
# norepinephrine reuptake = details: in vitro, rats; cited from earlier work
# Sequence of σ-1 non-opioid receptor (Q99720 whole entry): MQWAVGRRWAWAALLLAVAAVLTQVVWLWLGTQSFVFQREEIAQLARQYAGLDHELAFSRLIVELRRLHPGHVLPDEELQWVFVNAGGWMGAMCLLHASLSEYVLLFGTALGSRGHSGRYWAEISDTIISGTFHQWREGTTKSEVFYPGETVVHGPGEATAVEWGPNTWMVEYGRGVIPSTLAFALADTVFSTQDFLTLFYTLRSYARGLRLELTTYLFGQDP
structure (smiles),measurement,setting,value
COCCCC/C(=N\OCCN)c1ccc(C(F)(F)F)cc1 [fluvoxamine maleate],effect of food on oral bioavailability,"[1]; human, in vivo, po",not significantly affected by food
NCCO/N=C(\CCCC(=O)O)c1ccc(C(F)(F)F)cc1 [fluvoxamine acid],share of the urinary excretion products of fluvoxamine,[1],about 60%
same,potency on serotonin uptake relative to the parent compound,serotonin uptake,1-2 orders of magnitude less potent
"COCCCC/C(=N\OCCN)c1ccc(C(F)(F)F)cc1 [fluvoxamine, 2-[(E)-[5-methoxy-1-[4-(trifluoromethyl)phenyl]pentylidene]amino]oxyethanamine]",mean apparent volume of distribution,"[1]; human, in vivo",approximately 25 L/kg
same,mean apparent volume of distribution,"[1]; human, in vivo, listed as Fluvoxamine",25 L/kg
same,bound to plasma protein,[1],Approximately 80%
same,bound to plasma protein,[1]; listed as Fluvoxamine,80%
same,decrease in clearance in association with hepatic dysfunction,"[2]; cross study comparison, healthy subjects versus patients with hepatic dysfunction",30%
same,clearance reduced in elderly patients,"[2]; human, in vivo",about 50%
same,serotonin reuptake inhibition,serotonin reuptake,potent
same,"agonistic sigma1 binding affinity, rank among agents tested",σ-1 non-opioid receptor,strongest
"CCCCCc1cc(O)c2c(c1)OC(C)(C)[C@@H]1CCC(C)=C[C@@H]21 [dronabinol, (−)-(6aR,10aR)-6,6,9-trimethyl-3-pentyl-6a,7,8,10a-tetrahydro-6H-benzo[c]-chromen-1-ol]",survival rate,COVID-19; 2.5 mg dronabinol regimen,88.9%
same,LOS,COVID-19; 2.5 mg dronabinol regimen,17.4
same,# Survived,"COVID-19; 2.5 mg dronabinol regimen, total 9 in group",8
same,survival rate,COVID-19; 2.5 mg group (2.5 mg twice orally daily),89%
same,survival rate,COVID-19; 5 mg dronabinol regimen,94.1%
same,LOS,COVID-19; 5 mg dronabinol regimen,8.8
same,# Survived,"COVID-19; 5 mg dronabinol regimen, total 68 in group",64
same,survival rate,COVID-19; 5 mg treated group (5 mg orally twice daily),93.5%
same,survival rate,"COVID-19; all dronabinol-treated patients (77), standard of care alone 80%",93.5%
same,Mortality rate,"COVID-19; hospitalized COVID-19 patients requiring oxygen supplementation, 2.5 mg or 5 mg dronabinol orally BID plus standard of care, 77 patients, untreated group 20.5%",6.5%
same,"average first peak C-reactive protein (CRP) levels, difference","COVID-19; lower in the treatment group than untreated, p-value 0.07, not statistically significant",14%
same,reduction in mortality,"COVID-19; treated group (77) versus untreated/control group (44), p-value 0.02",68%
same,Length of stay in the hospital,"COVID-19; treated group, untreated group 15.6 days",9.9 days
same,reduction in length of stay,"COVID-19; treated versus untreated group, p-value 0.01",37%
same,time for which low levels of metabolites are detected in the urine and feces,[3]; following single dose administration,more than 5 weeks
same,radio-labeled oral dose recovered from the feces within 72 hours,"[3]; in vivo, po",about half
same,radio-labeled oral dose recovered from urine,"[3]; in vivo, po",10-15%
same,absorbed after single oral doses,[3]; oral,90-95%
same,plasma protein binding,[3]; Δ9-THC and its metabolites,approximately 97%
COCCCC/C(=N\OCCO)c1ccc(C(F)(F)F)cc1 [fluvoxamine ethanol],share of the urinary excretion products of fluvoxamine,[1],about 10%
same,inhibition of serotonin uptake,serotonin uptake,inactive
same,norepinephrine reuptake inhibition,norepinephrine reuptake,inactive
